Results taken from patent US20120258127A1 (priority 2010, published 2012).
Like-named read-outs stand apart in the source and are kept apart here.

Legend:
[1] = test system: CSFV reference strain Alfort 187; assay type: cell-based, porcine
CSFV isolate = test system: CSFV isolate; parameters: species or system pigs; details: pig, in vivo
[2] = test system: PBMC from vaccinated and challenged pigs; assay type: cell-based

N[C@H](Cc1c[nH]c2ccccc12)C(=O)O [D-tryptophan]
Effect on IFN-γ mediated reduction in the proportion of CSFV infected cells [1]: unaffected

N[C@@H](Cc1c[nH]c2ccccc12)C(=O)O [L-tryptophan]
Effect on IFN-γ mediated reduction in the proportion of CSFV infected cells [1]: unaffected

IFN-α
Proportion of infected cells [1]: eliminated the infection

L-N-6-(1-iminoethyl)lysine hydrochloride
Effect on IFN-γ mediated reduction in the proportion of CSFV infected cells ([1]; after 48 hours): unaffected

LRAAMVEYSYIFLDEY [SEQ ID NO:2]
Occurrence of symptoms of CSFV infection compared with control group (CSFV isolate): reduced occurrence of symptoms of CSFV infection
Recognition of individual antigenic peptides (IFN-γ) [2]: recognition

NIMARTDHPEPIQLAY [SEQ ID NO:3]
Occurrence of symptoms of CSFV infection compared with control group (CSFV isolate): reduced occurrence of symptoms of CSFV infection
Recognition of individual antigenic peptides (IFN-γ) [2]: recognition

NKYFEPRDSYFQQYML [SEQ ID NO:1]
Occurrence of symptoms of CSFV infection compared with control group (CSFV isolate): reduced occurrence of symptoms of CSFV infection
